For three compounds, inhibition results are on record in patent US20220009920A1 (GB005, Inc., priority 2020, published 2022).

Common to all, as to assay: Large panel kinase profiling
Holding throughout (type): biochemical
What all share (settings): 1 μM test article, 1 mM ATP

One test has as its target T1, DYRK2 (Homo sapiens, UniProt Q92630).
T1 construct: AssayQuant Technologies, Inc. (service laboratory)
T1 sequence (Q92630 1-601): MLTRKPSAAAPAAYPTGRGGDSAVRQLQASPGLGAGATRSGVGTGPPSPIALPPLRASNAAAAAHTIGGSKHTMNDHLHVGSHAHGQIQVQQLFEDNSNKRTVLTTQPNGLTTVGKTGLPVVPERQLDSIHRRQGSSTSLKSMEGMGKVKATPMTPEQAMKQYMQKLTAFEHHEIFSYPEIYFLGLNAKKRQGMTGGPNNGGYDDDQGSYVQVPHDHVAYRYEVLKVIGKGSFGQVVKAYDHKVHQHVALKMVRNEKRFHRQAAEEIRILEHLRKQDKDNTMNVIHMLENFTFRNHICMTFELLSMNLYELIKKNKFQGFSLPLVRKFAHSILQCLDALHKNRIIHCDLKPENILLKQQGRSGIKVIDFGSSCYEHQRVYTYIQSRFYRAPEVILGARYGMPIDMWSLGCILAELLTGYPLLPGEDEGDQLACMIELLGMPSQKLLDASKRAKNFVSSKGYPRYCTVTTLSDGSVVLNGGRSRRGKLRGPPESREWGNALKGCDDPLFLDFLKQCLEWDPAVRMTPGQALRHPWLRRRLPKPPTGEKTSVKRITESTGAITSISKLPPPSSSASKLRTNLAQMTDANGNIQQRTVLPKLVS
The method, boiled down: (§1)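 Fluorescence intensity (Ex 360 nm, Em 485 nm) was monitored continuously, once per minute, in PhosphoSens CSox-Sensor kinase reactions held at 30° C. Compound was present at 1 μM and ATP at 1 mM.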

For the next test, the target named is T2, DAPK3 (Homo sapiens, UniProt O43293).
T2 construct: AssayQuant Technologies, Inc. (service laboratory)
A digest of the protocol:
as §1

A further test concerns the target T3, CDK16/T (Homo sapiens, UniProt Q00536).
T3 construct: AssayQuant Technologies, Inc. (ran the panel)
A digest of the protocol: as §1

For a further test, the target named is T4, MET (Homo sapiens, UniProt P08581).
T4 construct: AssayQuant Technologies, Inc. (assay service)
The method, boiled down: as §1

The next test addresses T5, MAP4K2/GCK (Homo sapiens, UniProt Q12851).
T5 construct: AssayQuant Technologies, Inc. (service provider)
T5 sequence (Q12851 1-820): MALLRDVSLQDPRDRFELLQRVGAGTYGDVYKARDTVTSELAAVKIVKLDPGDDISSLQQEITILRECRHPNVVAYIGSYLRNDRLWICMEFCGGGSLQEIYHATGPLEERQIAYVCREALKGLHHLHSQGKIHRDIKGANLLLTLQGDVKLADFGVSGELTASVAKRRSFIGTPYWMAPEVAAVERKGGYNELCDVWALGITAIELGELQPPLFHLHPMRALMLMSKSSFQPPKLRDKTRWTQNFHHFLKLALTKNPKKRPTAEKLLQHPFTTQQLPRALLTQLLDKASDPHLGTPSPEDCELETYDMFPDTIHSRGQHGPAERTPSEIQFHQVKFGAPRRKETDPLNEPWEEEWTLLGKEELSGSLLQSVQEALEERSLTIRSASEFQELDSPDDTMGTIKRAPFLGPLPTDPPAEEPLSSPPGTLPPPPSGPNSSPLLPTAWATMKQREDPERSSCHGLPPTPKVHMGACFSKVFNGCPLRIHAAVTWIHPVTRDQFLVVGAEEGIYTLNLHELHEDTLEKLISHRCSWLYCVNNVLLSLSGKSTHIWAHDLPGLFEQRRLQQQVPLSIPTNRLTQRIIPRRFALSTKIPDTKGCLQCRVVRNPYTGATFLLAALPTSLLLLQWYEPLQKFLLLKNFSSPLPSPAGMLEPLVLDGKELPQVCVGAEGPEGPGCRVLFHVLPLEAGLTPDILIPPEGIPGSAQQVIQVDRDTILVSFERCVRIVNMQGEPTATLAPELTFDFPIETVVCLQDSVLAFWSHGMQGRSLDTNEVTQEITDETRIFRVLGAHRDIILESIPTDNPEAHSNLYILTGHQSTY
A digest of the protocol: as §1

A further test has as its target T6, MAPK1/ERK2 (Homo sapiens, UniProt P28482).
T6 construct: AssayQuant Technologies, Inc. (service provider)
The method, boiled down: as §1

The target of another test is T7, NTRK2/TRKB (Homo sapiens, UniProt Q16620).
T7 construct: AssayQuant Technologies, Inc. (assay service)
The method, boiled down:
as §1

A further test has as its target PAK3 (Homo sapiens, UniProt O75914). The method, boiled down:
as §1

The next test has as its target T8, MYLK2 (Homo sapiens, UniProt Q9H1R3).
T8 construct: AssayQuant Technologies, Inc. (assay service)
The method, boiled down: as §1

The target in another test is CAMK2A (Homo sapiens, UniProt Q9UQM7). A digest of the protocol:
as §1

T4 sequence (P08581 25-1390): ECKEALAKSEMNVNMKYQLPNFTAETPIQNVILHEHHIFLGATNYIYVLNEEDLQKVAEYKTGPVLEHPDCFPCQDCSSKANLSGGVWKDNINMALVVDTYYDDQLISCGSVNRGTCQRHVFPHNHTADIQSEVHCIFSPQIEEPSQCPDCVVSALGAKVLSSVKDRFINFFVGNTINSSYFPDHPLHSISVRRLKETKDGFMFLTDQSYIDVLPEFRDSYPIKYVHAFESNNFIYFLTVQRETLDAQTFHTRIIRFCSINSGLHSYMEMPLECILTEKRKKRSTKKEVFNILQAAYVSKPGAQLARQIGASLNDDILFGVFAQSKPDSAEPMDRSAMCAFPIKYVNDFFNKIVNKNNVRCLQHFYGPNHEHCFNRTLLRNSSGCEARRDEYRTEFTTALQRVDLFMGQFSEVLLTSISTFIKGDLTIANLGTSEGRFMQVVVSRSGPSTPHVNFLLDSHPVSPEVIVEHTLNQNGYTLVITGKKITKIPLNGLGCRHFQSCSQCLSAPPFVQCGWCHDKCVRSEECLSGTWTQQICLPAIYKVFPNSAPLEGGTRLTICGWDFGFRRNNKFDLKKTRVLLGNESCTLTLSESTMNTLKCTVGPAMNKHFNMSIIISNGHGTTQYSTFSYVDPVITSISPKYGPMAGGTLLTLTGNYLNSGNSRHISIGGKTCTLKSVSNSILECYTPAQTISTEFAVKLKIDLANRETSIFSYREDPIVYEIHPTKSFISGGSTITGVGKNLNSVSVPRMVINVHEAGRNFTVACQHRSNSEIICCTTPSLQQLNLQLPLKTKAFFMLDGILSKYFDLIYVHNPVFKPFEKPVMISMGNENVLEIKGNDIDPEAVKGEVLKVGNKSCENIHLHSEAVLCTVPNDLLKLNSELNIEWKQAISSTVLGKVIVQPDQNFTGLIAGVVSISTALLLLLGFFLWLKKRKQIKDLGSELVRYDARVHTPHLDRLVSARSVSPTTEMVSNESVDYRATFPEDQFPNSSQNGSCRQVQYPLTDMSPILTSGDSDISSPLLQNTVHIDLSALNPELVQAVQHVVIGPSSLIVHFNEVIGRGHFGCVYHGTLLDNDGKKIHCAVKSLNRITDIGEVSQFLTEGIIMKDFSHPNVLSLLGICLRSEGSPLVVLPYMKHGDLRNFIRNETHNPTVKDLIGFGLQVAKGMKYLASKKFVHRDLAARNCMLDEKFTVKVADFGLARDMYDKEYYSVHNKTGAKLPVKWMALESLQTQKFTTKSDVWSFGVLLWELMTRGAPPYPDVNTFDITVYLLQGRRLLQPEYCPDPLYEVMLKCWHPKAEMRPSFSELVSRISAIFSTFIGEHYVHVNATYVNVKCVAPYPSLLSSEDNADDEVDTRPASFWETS
T6 sequence (P28482 whole entry): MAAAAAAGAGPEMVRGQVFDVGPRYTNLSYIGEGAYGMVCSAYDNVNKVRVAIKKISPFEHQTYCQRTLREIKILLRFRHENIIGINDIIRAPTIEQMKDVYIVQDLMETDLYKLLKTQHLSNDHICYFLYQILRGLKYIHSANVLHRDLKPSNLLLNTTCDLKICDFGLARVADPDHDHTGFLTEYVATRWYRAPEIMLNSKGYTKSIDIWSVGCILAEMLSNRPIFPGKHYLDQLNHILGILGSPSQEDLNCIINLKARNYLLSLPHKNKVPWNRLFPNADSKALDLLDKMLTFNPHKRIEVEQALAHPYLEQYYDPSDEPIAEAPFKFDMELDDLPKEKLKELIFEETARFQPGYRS
Sequence of PAK3 (O75914 whole entry, species assumed): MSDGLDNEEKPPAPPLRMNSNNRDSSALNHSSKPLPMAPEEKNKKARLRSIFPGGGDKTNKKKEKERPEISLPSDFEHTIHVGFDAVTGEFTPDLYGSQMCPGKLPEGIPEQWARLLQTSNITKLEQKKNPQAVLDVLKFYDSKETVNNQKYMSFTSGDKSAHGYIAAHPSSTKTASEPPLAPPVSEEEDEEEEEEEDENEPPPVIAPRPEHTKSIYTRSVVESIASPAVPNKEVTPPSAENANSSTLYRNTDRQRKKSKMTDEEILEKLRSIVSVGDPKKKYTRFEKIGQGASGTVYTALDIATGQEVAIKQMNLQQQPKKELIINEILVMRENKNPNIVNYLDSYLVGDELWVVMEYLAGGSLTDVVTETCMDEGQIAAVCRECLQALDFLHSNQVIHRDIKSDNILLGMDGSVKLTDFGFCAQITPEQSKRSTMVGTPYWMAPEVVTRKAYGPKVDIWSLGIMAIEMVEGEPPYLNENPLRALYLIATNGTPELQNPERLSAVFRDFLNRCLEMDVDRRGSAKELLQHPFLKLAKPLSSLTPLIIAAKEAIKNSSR
T3 sequence (Q00536 whole entry, species assumed): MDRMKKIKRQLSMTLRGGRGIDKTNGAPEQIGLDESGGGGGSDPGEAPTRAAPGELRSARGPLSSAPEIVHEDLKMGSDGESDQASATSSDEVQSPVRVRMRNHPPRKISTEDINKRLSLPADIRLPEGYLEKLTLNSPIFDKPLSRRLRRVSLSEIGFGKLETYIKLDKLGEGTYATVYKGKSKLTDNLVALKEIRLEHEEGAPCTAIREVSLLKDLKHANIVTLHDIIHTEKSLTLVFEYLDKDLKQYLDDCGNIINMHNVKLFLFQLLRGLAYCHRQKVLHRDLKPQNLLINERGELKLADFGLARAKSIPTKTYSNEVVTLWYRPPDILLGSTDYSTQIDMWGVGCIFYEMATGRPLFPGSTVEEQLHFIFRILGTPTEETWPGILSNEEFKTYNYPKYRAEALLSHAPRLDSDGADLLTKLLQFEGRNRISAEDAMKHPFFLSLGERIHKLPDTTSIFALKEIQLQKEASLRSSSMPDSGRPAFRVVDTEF
T3 sequence (Q8ND76 whole entry partner, species assumed): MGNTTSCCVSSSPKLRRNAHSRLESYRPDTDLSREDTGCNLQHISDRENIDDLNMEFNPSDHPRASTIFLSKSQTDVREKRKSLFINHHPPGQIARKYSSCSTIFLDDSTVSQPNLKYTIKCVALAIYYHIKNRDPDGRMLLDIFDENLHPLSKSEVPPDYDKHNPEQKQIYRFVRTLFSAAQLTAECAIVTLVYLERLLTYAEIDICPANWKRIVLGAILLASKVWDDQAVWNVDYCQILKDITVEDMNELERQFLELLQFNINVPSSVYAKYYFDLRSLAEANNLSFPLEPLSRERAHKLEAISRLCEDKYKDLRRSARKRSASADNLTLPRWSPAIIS
T7 sequence (Q16620 32-822): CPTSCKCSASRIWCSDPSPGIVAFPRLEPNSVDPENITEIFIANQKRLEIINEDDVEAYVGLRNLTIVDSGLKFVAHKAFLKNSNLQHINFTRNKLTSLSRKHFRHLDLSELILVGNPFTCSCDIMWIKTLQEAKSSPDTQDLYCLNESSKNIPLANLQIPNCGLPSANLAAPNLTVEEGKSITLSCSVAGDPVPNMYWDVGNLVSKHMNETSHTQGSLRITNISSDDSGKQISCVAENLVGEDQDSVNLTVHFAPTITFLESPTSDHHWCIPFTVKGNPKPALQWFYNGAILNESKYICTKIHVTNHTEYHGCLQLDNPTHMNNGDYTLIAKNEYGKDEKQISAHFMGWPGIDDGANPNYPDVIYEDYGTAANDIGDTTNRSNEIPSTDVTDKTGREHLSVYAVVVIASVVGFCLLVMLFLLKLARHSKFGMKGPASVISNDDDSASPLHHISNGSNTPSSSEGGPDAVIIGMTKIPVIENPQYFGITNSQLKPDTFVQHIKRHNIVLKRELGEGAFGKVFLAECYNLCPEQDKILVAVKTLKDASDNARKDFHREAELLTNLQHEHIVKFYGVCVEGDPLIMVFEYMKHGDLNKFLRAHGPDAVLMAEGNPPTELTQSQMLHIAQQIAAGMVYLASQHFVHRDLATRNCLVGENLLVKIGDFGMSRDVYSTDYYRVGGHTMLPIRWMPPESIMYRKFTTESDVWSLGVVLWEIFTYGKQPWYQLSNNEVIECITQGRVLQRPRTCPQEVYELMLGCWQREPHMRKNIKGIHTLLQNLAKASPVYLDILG
T2 sequence (O43293 whole entry, species assumed): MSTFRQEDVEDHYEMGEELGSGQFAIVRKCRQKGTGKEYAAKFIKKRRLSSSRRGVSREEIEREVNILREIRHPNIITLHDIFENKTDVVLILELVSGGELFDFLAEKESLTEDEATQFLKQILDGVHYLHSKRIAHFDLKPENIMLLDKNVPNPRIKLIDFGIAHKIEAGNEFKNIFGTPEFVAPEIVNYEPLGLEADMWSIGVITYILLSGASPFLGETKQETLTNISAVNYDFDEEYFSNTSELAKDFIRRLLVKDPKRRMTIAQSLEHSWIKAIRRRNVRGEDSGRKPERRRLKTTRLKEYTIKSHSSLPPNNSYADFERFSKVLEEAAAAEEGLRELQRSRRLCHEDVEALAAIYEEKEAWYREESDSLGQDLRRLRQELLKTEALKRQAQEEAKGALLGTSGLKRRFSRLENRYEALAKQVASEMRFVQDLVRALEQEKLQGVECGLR
Sequence of CAMK2A (Q9UQM7 whole entry): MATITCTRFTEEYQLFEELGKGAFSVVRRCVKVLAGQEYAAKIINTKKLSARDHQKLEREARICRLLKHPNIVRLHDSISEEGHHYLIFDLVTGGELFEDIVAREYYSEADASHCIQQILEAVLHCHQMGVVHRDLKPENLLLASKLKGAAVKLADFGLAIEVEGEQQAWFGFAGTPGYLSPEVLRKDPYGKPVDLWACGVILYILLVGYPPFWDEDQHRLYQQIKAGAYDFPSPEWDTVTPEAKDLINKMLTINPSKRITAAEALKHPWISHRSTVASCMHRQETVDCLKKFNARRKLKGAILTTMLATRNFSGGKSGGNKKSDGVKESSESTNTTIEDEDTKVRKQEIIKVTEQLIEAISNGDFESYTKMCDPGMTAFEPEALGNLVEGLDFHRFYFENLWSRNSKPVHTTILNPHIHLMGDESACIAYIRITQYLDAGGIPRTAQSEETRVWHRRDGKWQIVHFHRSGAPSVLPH

Consider `C=CC(=O)N1CCCC(c2c(F)cc(C(N)=O)c3[nH]c4c(c23)CCCCC4)C1` (single isomer, unassigned) [Compound 5-6], for which the inhibition at 1 µM against DYRK2 was 6.1%; on DAPK3, 25.9%; at CDK16/T it was 19.7%; against MET it was 12%; on MAP4K2/GCK, -46.6%; against MAPK1/ERK2, -4.4%. In addition, the inhibition at 1 µM was -20.9% against NTRK2/TRKB, 5.4% against PAK3, 16.8% against MYLK2 and 4.9% against CAMK2A.

Turning to `C=CC(=O)N1CCC[C@@H](c2c(F)cc(C(N)=O)c3[nH]c4c(c23)CC2(CC4)CC2)C1` [Compound 6-2, (S)-5-(1-acryloylpiperidin-3-yl)-6-fluoro-1,2,4,9-tetrahydrospiro[carbazole-3,1′-cyclopropane]-8-carboxamide], the inhibition at 1 µM against DYRK2 was 13.3%; against DAPK3 it was 10%; against CDK16/T, -3.1%; at MET it was 18.9%; against MAP4K2/GCK it was -1.3%; against MAPK1/ERK2, -3.8%. Besides, the inhibition at 1 µM at NTRK2/TRKB is 13.1%; against PAK3, 10.2%; at MYLK2 it was -28.4%; against CAMK2A it was 35.8%.

As for `C=CC(=O)N1CCC[C@@H](c2c(F)cc(C(N)=O)c3[nH]c4c(c23)CCC4)C1` [Compound 10-2, (S)-8-(1-acryloylpiperidin-3-yl)-7-fluoro-1,2,3,4-tetrahydrocyclo-penta[b]indole-5-carboxamide], the inhibition at 1 µM against DYRK2 is 0.3%; against DAPK3 it was -4.9%; on CDK16/T, -8.1%; against MET, 28.1%; on MAP4K2/GCK it was -1.3%; against MAPK1/ERK2, -8.8%. Also, the inhibition at 1 µM against NTRK2/TRKB is 19.7%; on PAK3, 21.7%; against MYLK2 it was -33.6%; against CAMK2A it was 14.7%.

The term inhibition denotes the relative decrease from the control value, in per cent.
